Laboratory results as given in patent US4179467A, “Dopamine hydroxylase inhibiting 2-amino-cyclopent-1-ene-1-thiocarboxylic acid-disulfides” (Richter Gedeon Vegyeszeti Gyar Rt., priority 1976, dated 1979).
Read-outs that look alike come from different tables or passages of the source.

Experiments:
[1] = in vivo; conditions: mouse, in vivo, mice
[2] = system: dopamine-β-hydroxylase; test: Noradrenaline level of heart in rats, % of controls; format: in vivo, male Wistar rats; conditions: rat, 4 hours
Protocol: (§1) The dopamine-β-hydroxylase inhibiting effects of the new compounds according to the invention were examined by the following tests:
(§2) The tests were performed on male Wistar rats weighing 150 to 200 g. The dopamine-β-hydroxylase inhibiting effects of the compounds were evaluated by determining the change of noradrenaline, dopamine and adrenaline levels of the cerebrum, heart, spleen and adrenal gland. The serotonine and 5-hydroxy-indolylacetic acid levels of the cerebrum were also determined. The measurements were performed as follows:
(§3) The animals were decapitated, the cerebrum, heart, spleen and adrenal gland were removed quickly, and the organs were frozen by placing them on a metal sheet cooled with dry ice. The frozen organs were stored for a maximum of one night at -20° C.
(§4) The organs were weighed in the frozen state and then homogenized in 5.0 ml of 0.4 N perchloric acid containing 0.05% of EDTA-Naa and 0.1% of Na2 S2 O5. The homogenized mixtures were centrifuged as described above for the treatment of adrenal gland, the supernatants were decanted, and the pH was adjusted to 8.0±0.1 with a 0.1 molar tris buffer containing 20 g/l of NaOH and 25 g/l of EDTA-Na2. 100 mg of prepared Al2 O3 (Anton et al.: J. Pharm. Ther. 138, 360 (1962)) were added to the samples, and the mixtures were shaken mechanically for 20 minutes. Thereafter the Al2 O3 was washed with 2×10 ml of distilled water, and noradrenaline was eluted with 1.0 ml of 0.05 N perchloric acid. 0.5 ml samples of the eluate were used for the determination of noradrenaline. Noradrenaline was determined according to the method of Shellenberger et al. (Anal. Biochem. 39, 356 (1971)), with the following modifications of the basic procedure: 0.5 ml of 0.1 molar Na-K-phosphate buffer, containing 9 g/l of EDTA-Na2, were added to 0.5 ml of the eluate, and the catecholamines (noradrenaline in the examination of heart and spleen and noradrenaline and dopamine in the examination of the cerebrum) were oxidized with 0.1 ml of a 0.1 N iodine solution in 5% potassium iodide. After exactly 2 minutes, oxidation was stopped by adding 0.25 ml of a 2.5% sodium sulfite solution in 4.4 N aqueous sodium hydroxide to the mixture. 2 minutes after the introduction of the alkaline sulfite solution, 0.2 ml of concentrated acetic acid was added to the samples, whereupon the pH decreased to 4.4 to 4.5. Thereafter the samples were placed for 5 minutes in a drying oven heated to 100° C., and then the samples were cooled with ice water. The fluorescency of noradrenaline was measured with an OPTON spectrophotometer at wavelengths of 380 nm (excitation) and 490 nm (emission).
(§5) In the tests disulfiram, 2,2-dipyridyl, bis(1-methyl-4-homopiperazinyl-thiocarbonyl)-disulfide, sodium diethyldithiocarbamate and N-phenyl-N'-(2-thiazolyl)-thiourea were used as reference substances. The values indicated in Table 1 are the percentages in relation to the amine levels of the controls measured in the same tests (±standard error). The statistical calculations were performed on a TPA/i type computer, using Student's t test.

[3] = system: serotonine and 5-hydroxy-indolylacetic acid levels of the cerebrum; test: Serotonine and 5-hydroxy-indolylacetic acid levels of the cerebrum (brain) in rats, % of controls; format: in vivo, male Wistar rats; conditions: rat; for response vs control in vivo at 100 mg/kg / response vs control in vivo at 200 mg/kg: ip; for response vs control in vivo at 500 mg/kg: po, p.o.
Protocol: as §2, §3
In a further test series the serotonine and 5-hydroxy-indolylacetic acid contents were also determined, in addition to the determination of the noradrenaline and dopamine content, from the same sample. In this instance the brains were homogenized in 10 ml of 75% ethanol, 0.2 ml of EDTA-Na2 and 5% of ascorbic acid were added to the homogenized mixtures, and the homogenized mixtures were maintained at -20° C. overnight. The mixtures were centrifuged as described above, and 5.0 ml samples of the supernatant were removed. The samples were diluted with equal volumes of distilled water, and poured onto ion exchange columns of 0.5×1.5 cm dimensions, filled with buffered Amberlite CG-30 (200 to 400 mesh). The columns were washed with 5 ml of distilled water followed by 1.0 ml of 0.2 N hydrochloric acid, and the first effluent and the aqueous wash were collected for the determination of 5-hydroxy-indolylacetic acid. Elution was continued with a further 1.2 ml quantity of 0.2 N hydrochloric acid in order to remove noradrenaline, dopamine and serotonine. Samples of 0.3 ml were used for the determinations.
Noradrenaline and dopamine were determined by the method of Shellenberger, modified as described above, whereas serotonine was determined by the method of Curzon et al. (Brit. J. Pharmacol. 39, 653 (1970)). The basic method was modified as follows: A 0.5% solution of ortho-phthal(di)aldehyde in absolute ethanol was diluted with […] hydrochloric acid to 50-fold of its original volume, and 0.6 ml of the resulting 0.01% ortho-phthal(di)aldehyde solution were added immediately to 0.5 ml of the serotonine-containing sample. The sample was placed in a hot water bath for 10 minutes, thereafter cooled with tap water, and the flourescence was recorded at wavelengths of 360 nm (excitation) and 490 nm (emission).
5-Hydroxy-indolylacetic acid was determined from the mixture of the first effluent and the aqueous wash. 10 ml of distilled water and 0.2 ml of concentrated hydrochloric acid were added to the mixture, and the sample was poured onto a 0.8×4.0 cm column filled with Sephadex G-10. The column was washed with 15 ml of 0.1 N hydrochloric acid followed by 1.8 to 2.0 ml of 0.02 N aqueous ammonia, and then 5-hydroxy-indolylacetic acid was eluted with further 2.0 ml of the aqueous ammonia. 0.5 ml samples were used in the measurements, and the determination was performed according to the method of Korf et al. (Biochem. Pharmacol. 20, 659 (1971)).
as §5

[4] = system: dopamine-β-hydroxylase; test: Noradrenaline level of spleen in rats, % of controls; format: in vivo, male Wistar rats; conditions: rat, i.p., 200 mg/kg, 4 hours
Protocol: as §1
as §2, with “follows: […]” for “follows:”
The organs were weighed in the frozen state and then homogenized in 5.0 ml of 0.4 N perchloric acid containing 0.05% of EDTA-Naa and 0.1% of Na2 S2 O5. […] Noradrenaline was determined according to the method of Shellenberger et al. (Anal. Biochem. 39, 356 (1971)), with the following modifications of the basic procedure: 0.5 ml of 0.1 molar Na-K-phosphate buffer, containing 9 g/l of EDTA-Na2, were added to 0.5 ml of the eluate, and the catecholamines (noradrenaline in the examination of heart and spleen and noradrenaline and dopamine in the examination of the cerebrum) were oxidized with 0.1 ml of a 0.1 N iodine solution in 5% potassium iodide. […] The fluorescency of noradrenaline was measured with an OPTON spectrophotometer at wavelengths of 380 nm (excitation) and 490 nm (emission). […]

[5] = system: dopamine-β-hydroxylase; test: Noradrenaline and dopamine levels of the cerebrum (brain) in rats, % of controls; format: in vivo, male Wistar rats; conditions: rat, i.p., 200 mg/kg, 4 hours
Protocol: as §1, §2, §3, §4
The brains were homogenized in 10 parts by volume of 0.4 N perchloric acid. The homogenized mixture was stored at -20° C. overnight; thereafter it was thawed and centrifuged as described above. A sample of the homogenized mixture corresponding to 0.5 g of brain was removed, the pH of the sample was adjusted to 8.0±0.1 with 0.1 molar tris-buffer of the above composition, and the sample was processed as described above for the determination of the noradrenaline content of heart and spleen, with the difference that 1.5 ml of 0.05 N perchloric acid was used as the eluting agent. 0.5 ml of the eluate was used to determine the noradrenaline and dopamine contents. The measurement was performed as described above, with the difference that samples of 0.5 ml were applied for the recording of the flourescence of noradrenaline. The residue was placed for 50 minutes into a drying oven heated to 100° C., thereafter the sample was cooled with ice water, and the fluorescence of dopamine was recorded at wavelengths of 325 nm (excitation) and 380 nm (emission).
In a further test series the serotonine and 5-hydroxy-indolylacetic acid contents were also determined, in addition to the determination of the noradrenaline and dopamine content, from the same sample. […]

[6] = system: dopamine-β-hydroxylase; test: Adrenaline level of adrenal gland in rats, % of controls; format: in vivo, male Wistar rats; conditions: rat, i.p., 200 mg/kg, 4 hours
Protocol: as §1, §2, §3
The adrenal glands were freed from fat and homogenized in 3.0 ml of ice-cold 0.4 N perchloric acid. The homogenized mixtures were centrifuged for 10 minutes at 0° C. with a speed of 3200 r.p.m. using a Janetzky K-70 type centrifuge. 0.05 ml samples were taken from the supernatant, and the adrenaline level was determined directly by the method of Laverty et al. (Anal. Biochem. 22, 269 (1968)).
as §5

[7] = system: mice; test: in vivo; conditions: p.o.

## COCCNC1=C(C(=S)SSC(=S)C2=C(NCCOC)CCC2)CCC1 [M-4, 2-(N-methoxyethyl)-amino-cyclopent-1-ene-thiocarboxylic acid disulfide]
[1]; ip
  LD50: > 1500 mg/kg
[2]; p.o., 500 mg/kg
  Heart NA level (percentages in relation to the controls): 86.4 ± 10.1%
[3]; i.p., 4 hours, read-out: Brain 5-HIAA level (percentages in relation to the controls)
  response vs control in vivo at 100 mg/kg: 108 ± 9.6%
[3]; i.p., 4 hours, read-out: Brain SE level (percentages in relation to the controls)
  response vs control in vivo at 100 mg/kg: 113 ± 2.8%
[3]; i.p., 200 mg/kg, 4 hours, read-out: Brain 5-HIAA level (percentages in relation to the controls)
  response vs control in vivo at 200 mg/kg: 151%
[3]; i.p., 200 mg/kg, 4 hours, read-out: Brain SE level (percentages in relation to the controls)
  response vs control in vivo at 200 mg/kg: 113 ± 5.6%
[3]; i.p., 200 mg/kg, 8 hours, read-out: Brain 5-HIAA level (percentages in relation to the controls)
  response vs control in vivo at 200 mg/kg: 161%
[3]; i.p., 200 mg/kg, 8 hours, read-out: Brain SE level (percentages in relation to the controls)
  response vs control in vivo at 200 mg/kg: 106 ± 7.5%
[3]; 4 hours, read-out: Brain 5-HIAA level (percentages in relation to the controls)
  response vs control in vivo at 500 mg/kg: 95.4 ± 6%
[3]; 4 hours, read-out: Brain SE level (percentages in relation to the controls)
  response vs control in vivo at 500 mg/kg: 103 ± 5.3%
[3]; 8 hours, read-out: Brain 5-HIAA level (percentages in relation to the controls)
  response vs control in vivo at 500 mg/kg: 106 ± 4.9%
[3]; 8 hours, read-out: Brain SE level (percentages in relation to the controls)
  response vs control in vivo at 500 mg/kg: 90.9 ± 6.7%

## S=C(Nc1ccccc1)Nc1nccs1 [U-14624, N-phenyl-N'-(2-thiazolyl)-thiourea]
[1]; ip
  LD50: ~680 mg/kg
[1]; po
  LD50: > 1000 mg/kg
[2]; i.p., 200 mg/kg
  Heart NA level (percentages in relation to the controls): 106%
[4]
  Spleen NA level (percentages in relation to the controls): 111%
[5]
  Brain DA level (percentages in relation to the controls): 121%
  Brain NA level (percentages in relation to the controls): 31.6%
[6]
  Adrenal gland adrenaline level (% of controls): 72%
[3]; i.p., 200 mg/kg, 4 hours
  Brain 5-HIAA level (percentages in relation to the controls): 175%
  Brain SE level (percentages in relation to the controls): 137%

## Chlorofusaric acid
[7]
  LD50: 470 ± 85 mg/kg
